Experiments:
Assay in all cases: KINOMEscan
Type in all cases: binding
NEK10 = NEK10 (Homo sapiens (Human), UniProt Q6ZWH5); conditions: NEK10, 10000 nM; read-out: Percent Control
CDC2L2 = CDC2L2 (Homo sapiens (Human), UniProt Q9UQ88); conditions: CDC2L2, 10000 nM; read-out: Percent Control
BRAF = BRAF (Homo sapiens (Human), UniProt P15056); conditions: 10000 nM, read-out: Percent Control
ERK8 = ERK8 (Homo sapiens (Human), UniProt Q8TD08); conditions: ERK8, 10000 nM; read-out: Percent Control
HIPK1 = HIPK1 (Homo sapiens (Human), UniProt Q86Z02); conditions: HIPK1, 10000 nM; read-out: Percent Control
ERBB4 = ERBB4 (Homo sapiens (Human), UniProt Q15303); conditions: ERBB4, 10000 nM; read-out: Percent Control
CTK = CTK (Homo sapiens (Human), UniProt P42679); conditions: 10000 nM, read-out: Percent Control
MET(M1250T) = MET(M1250T) (Homo sapiens (Human), UniProt P08581, M1250T); conditions: 10000 nM, read-out: Percent Control
CLK2 = CLK2 (Homo sapiens (Human), UniProt P49760); conditions: CLK2, 10000 nM; read-out: Percent Control
BMPR1B = BMPR1B (Homo sapiens (Human), UniProt O00238); conditions: 10000 nM, read-out: Percent Control
MAP3K4 = MAP3K4 (Homo sapiens (Human), UniProt Q9Y6R4); conditions: MAP3K4, 10000 nM; read-out: Percent Control
PKAC-beta = PKAC-beta (Homo sapiens (Human), UniProt P22694); conditions: 10000 nM, read-out: Percent Control
HCK = HCK (Homo sapiens (Human), UniProt P08631); conditions: 10000 nM, read-out: Percent Control
ASK1 = ASK1 (Homo sapiens (Human), UniProt Q99683); conditions: ASK1, 10000 nM; read-out: Percent Control
CLK1 = CLK1 (Homo sapiens (Human), UniProt P49759); conditions: CLK1, 10000 nM; read-out: Percent Control
[1] = biological target: ABL1(Q252H)-nonphosphorylated (Homo sapiens (Human), UniProt P00519, Q252H); conditions: 10000 nM, read-out: Percent Control
CDK9 = CDK9 (Homo sapiens (Human), UniProt P50750); conditions: CDK9, 10000 nM; read-out: Percent Control
VEGFR2 = VEGFR2 (Homo sapiens (Human), UniProt P35968); conditions: VEGFR2, 10000 nM; read-out: Percent Control
MST1R = MST1R (Homo sapiens (Human), UniProt Q04912); conditions: 10000 nM, read-out: Percent Control
IGF1R = IGF1R (Homo sapiens (Human), UniProt P08069); conditions: 10000 nM, read-out: Percent Control
ABL1-nonphosphorylated = ABL1-nonphosphorylated (Homo sapiens (Human), UniProt P00519); conditions: 10000 nM, read-out: Percent Control
JNK3 = JNK3 (Homo sapiens (Human), UniProt P53779); conditions: JNK3, 10000 nM; read-out: Percent Control
MAP3K15 = MAP3K15 (Homo sapiens (Human), UniProt Q6ZN16); conditions: MAP3K15, 10000 nM; read-out: Percent Control
PKN1 = PKN1 (Homo sapiens (Human), UniProt Q16512); conditions: PKN1, 10000 nM; read-out: Percent Control
MARK2 = MARK2 (Homo sapiens (Human), UniProt Q7KZI7); conditions: MARK2, 10000 nM; read-out: Percent Control
CDK4-cyclinD1 = CDK4-cyclinD1 (Homo sapiens (Human), UniProt P11802); conditions: CDK4-cyclinD1, 10000 nM; read-out: Percent Control
[2] = biological target: JAK2(JH1domain-catalytic) (Homo sapiens (Human), UniProt O60674); conditions: 10000 nM, read-out: Percent Control
PIM3 = PIM3 (Homo sapiens (Human), UniProt Q86V86); conditions: PIM3, 10000 nM; read-out: Percent Control
PIM2 = PIM2 (Homo sapiens (Human), UniProt Q9P1W9); conditions: PIM2, 10000 nM; read-out: Percent Control
PRKCH = PRKCH (Homo sapiens (Human), UniProt P24723); conditions: 10000 nM, read-out: Percent Control
TNNI3K = TNNI3K (Homo sapiens (Human), UniProt Q59H18); conditions: 10000 nM, read-out: Percent Control
CSF1R-autoinhibited = CSF1R-autoinhibited (Homo sapiens (Human), UniProt P07333); conditions: 10000 nM, read-out: Percent Control
SRPK1 = SRPK1 (Homo sapiens (Human), UniProt Q96SB4); conditions: SRPK1, 10000 nM; read-out: Percent Control
TRPM6 = TRPM6 (Homo sapiens (Human), UniProt Q9BX84); conditions: TRPM6, 10000 nM; read-out: Percent Control

Chain of HCK (P08631 whole entry): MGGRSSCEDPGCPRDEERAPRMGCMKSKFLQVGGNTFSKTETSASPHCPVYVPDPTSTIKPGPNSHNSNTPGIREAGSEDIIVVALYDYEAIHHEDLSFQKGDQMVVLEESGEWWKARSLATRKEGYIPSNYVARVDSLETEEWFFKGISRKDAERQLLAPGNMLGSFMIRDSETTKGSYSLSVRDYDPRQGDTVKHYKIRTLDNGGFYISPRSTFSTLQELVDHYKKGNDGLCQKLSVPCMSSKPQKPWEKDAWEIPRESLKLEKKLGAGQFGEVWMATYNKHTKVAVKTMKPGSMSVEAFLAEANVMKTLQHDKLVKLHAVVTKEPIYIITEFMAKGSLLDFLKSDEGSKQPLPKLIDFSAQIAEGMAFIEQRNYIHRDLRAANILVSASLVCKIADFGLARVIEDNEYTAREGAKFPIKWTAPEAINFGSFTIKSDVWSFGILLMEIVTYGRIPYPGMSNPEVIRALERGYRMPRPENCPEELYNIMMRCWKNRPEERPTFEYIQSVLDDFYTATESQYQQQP
Chain of MST1R (Q04912 25-1400): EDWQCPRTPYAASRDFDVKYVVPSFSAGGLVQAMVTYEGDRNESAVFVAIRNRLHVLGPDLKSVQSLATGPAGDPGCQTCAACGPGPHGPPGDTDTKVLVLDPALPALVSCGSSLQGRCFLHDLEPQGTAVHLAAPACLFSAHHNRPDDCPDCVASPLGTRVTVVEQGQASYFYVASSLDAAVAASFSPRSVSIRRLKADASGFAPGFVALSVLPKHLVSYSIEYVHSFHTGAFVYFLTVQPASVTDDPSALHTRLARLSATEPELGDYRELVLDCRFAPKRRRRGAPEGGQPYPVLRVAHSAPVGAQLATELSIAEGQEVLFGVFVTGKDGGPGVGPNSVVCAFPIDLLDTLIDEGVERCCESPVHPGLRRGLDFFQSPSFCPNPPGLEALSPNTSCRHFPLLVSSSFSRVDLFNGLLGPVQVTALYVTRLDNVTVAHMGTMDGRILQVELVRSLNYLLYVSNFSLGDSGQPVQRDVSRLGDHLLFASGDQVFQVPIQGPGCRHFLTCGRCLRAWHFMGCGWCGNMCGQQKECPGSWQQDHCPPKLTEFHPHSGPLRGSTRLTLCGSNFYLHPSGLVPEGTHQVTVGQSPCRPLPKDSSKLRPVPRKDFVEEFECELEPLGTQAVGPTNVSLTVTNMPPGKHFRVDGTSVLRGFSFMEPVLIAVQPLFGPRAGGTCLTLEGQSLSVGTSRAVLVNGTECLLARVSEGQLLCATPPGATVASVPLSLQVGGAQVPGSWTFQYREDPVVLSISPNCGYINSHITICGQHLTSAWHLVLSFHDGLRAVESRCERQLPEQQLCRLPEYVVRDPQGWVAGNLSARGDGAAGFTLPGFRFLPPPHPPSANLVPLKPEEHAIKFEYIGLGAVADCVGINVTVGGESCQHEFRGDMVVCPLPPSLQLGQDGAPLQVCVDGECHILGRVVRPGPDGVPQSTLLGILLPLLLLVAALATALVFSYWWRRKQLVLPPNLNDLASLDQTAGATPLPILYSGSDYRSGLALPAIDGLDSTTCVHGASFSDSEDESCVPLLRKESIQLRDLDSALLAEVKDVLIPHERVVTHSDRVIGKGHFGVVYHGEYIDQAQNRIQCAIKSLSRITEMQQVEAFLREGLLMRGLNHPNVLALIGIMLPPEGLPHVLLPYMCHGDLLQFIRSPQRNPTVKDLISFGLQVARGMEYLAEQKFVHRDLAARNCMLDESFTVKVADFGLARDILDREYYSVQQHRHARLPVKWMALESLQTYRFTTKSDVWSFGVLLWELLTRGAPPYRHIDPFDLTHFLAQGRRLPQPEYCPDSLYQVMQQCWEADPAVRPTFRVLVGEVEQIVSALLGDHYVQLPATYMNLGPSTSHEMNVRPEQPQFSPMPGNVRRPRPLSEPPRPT
Chain of CSF1R-autoinhibited (P07333 539-972): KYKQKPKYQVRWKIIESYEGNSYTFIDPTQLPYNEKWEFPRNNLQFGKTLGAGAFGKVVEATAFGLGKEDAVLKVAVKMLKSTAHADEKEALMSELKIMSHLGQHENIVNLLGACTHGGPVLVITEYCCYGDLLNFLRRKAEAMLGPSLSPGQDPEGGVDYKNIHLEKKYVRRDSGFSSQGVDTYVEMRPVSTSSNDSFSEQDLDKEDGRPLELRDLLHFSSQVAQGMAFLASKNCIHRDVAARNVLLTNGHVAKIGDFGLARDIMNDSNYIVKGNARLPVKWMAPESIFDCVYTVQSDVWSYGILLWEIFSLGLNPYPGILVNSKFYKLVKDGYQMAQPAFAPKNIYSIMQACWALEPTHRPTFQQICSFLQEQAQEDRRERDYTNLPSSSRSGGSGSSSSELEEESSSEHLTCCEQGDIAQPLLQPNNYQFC
Chain of CDK4-cyclinD1 (P11802 whole entry): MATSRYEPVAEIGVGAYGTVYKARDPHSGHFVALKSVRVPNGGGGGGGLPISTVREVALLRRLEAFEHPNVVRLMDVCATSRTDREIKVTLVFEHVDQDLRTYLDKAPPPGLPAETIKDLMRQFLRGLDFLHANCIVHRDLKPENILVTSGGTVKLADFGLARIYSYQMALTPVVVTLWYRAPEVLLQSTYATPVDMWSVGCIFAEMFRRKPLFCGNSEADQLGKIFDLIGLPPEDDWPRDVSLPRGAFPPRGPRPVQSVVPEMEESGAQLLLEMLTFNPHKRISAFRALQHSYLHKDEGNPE
Chain of CDK4-cyclinD1 (P24385 whole entry partner): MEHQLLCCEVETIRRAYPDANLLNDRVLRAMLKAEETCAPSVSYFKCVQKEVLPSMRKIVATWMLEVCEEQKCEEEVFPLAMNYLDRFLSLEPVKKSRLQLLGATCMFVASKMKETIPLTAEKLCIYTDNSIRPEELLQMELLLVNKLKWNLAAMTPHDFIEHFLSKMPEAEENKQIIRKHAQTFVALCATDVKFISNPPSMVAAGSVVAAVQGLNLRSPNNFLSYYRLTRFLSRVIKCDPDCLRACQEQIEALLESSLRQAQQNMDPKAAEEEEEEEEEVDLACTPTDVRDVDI
Chain of ERBB4 (Q15303 26-1308): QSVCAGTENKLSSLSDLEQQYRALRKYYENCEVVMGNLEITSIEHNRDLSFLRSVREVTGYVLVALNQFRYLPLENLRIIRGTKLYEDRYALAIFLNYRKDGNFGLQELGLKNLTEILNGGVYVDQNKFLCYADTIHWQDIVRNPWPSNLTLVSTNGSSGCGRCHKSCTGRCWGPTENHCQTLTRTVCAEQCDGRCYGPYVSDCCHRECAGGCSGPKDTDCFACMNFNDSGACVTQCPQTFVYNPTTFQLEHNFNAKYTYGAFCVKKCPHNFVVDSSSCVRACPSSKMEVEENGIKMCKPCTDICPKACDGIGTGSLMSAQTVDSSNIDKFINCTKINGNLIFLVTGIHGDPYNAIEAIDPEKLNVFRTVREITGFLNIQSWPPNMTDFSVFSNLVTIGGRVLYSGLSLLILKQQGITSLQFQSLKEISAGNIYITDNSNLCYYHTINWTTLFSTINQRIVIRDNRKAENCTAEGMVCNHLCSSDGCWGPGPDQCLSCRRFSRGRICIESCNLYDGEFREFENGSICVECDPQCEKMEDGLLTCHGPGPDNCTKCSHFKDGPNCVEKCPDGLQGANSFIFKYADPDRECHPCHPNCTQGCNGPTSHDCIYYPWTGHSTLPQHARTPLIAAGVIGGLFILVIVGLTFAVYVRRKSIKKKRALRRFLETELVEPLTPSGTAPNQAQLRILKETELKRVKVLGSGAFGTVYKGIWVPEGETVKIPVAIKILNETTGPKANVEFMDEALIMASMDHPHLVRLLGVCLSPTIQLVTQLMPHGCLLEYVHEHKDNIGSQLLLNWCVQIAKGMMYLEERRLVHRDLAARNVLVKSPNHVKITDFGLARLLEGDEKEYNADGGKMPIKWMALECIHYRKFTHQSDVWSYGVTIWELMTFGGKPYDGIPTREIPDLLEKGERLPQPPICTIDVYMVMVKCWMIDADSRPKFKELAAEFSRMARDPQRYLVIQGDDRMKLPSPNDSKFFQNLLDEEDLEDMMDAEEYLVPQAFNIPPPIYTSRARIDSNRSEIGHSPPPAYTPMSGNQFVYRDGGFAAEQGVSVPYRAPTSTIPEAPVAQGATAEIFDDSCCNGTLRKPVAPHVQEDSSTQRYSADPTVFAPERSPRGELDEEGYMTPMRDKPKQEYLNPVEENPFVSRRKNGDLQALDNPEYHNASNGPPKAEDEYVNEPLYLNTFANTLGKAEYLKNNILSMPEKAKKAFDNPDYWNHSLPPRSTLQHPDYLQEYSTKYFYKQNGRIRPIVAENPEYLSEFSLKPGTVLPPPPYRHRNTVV
Chain of CTK (P42679 whole entry): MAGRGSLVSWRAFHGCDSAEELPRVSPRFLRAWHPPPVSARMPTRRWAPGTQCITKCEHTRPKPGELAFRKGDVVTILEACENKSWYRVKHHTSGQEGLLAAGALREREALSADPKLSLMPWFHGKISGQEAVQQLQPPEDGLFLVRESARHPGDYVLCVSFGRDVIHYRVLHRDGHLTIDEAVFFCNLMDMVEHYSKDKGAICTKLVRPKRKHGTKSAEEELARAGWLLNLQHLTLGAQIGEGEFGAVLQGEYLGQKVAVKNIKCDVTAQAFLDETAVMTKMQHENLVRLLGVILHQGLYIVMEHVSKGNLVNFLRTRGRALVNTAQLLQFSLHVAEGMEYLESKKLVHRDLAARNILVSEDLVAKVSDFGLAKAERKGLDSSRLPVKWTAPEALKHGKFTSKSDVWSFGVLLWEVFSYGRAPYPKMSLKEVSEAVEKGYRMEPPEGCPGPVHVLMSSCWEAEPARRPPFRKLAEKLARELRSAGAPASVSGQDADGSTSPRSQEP
Chain of JAK2(JH1domain-catalytic) (O60674 849-1124): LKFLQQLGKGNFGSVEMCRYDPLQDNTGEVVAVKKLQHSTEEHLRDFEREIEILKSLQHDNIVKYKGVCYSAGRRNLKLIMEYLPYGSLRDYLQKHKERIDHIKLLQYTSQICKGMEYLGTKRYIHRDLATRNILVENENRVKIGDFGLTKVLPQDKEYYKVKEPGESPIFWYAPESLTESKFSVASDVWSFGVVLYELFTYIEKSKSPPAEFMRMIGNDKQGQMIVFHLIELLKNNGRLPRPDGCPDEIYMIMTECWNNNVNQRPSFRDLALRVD

Row | Structure (SMILES) | remaining binding at 10 µM (NEK10) | remaining binding at 10 µM (CDC2L2) | remaining binding at 10 µM (BRAF) | remaining binding at 10 µM (ERK8) | remaining binding at 10 µM (HIPK1) | remaining binding at 10 µM (ERBB4) | remaining binding at 10 µM (CTK) | remaining binding at 10 µM (MET(M1250T)) | remaining binding at 10 µM (CLK2) | remaining binding at 10 µM (BMPR1B) | remaining binding at 10 µM (MAP3K4) | remaining binding at 10 µM (PKAC-beta) | remaining binding at 10 µM (HCK) | remaining binding at 10 µM (ASK1) | remaining binding at 10 µM (CLK1) | remaining binding at 10 µM [1] | remaining binding at 10 µM (CDK9) | remaining binding at 10 µM (VEGFR2) | remaining binding at 10 µM (MST1R) | remaining binding at 10 µM (IGF1R) | further results
1 | COc1cc(N2CCC(N3CCN(C)CC3)CC2)ccc1Nc1ncc2c(n1)N(C)c1sc(C)nc1C(=O)N2 [Compound 3, 6-((2-methoxy-4-(4-(4-methylpiperazin-1-yl)piperidin-1-yl)phenyl)amino)-2,4-dimethyl-4,9-dihydro-10H-pyrimido[5,4-b]thiazolo[5,4-e][1,4]diazepin-10-one] | 100% | 87% | 86% | 86% | 83% | 57% | 98% | 82% | 72% | 88% | 73% | 82% | 69% | 74% | 90% | 7.8% | 74% | 100% | 90% | 86% | remaining binding at 10 µM (ABL1-nonphosphorylated): 25%; remaining binding at 10 µM (JNK3): 100%; remaining binding at 10 µM (MAP3K15): 90%; remaining binding at 10 µM (PKN1): 69%; remaining binding at 10 µM (MARK2): 100%; remaining binding at 10 µM (CDK4-cyclinD1): 100%; remaining binding at 10 µM [2]: 100%; remaining binding at 10 µM (PIM3): 70%; remaining binding at 10 µM (PIM2): 92%; remaining binding at 10 µM (PRKCH): 89%; remaining binding at 10 µM (TNNI3K): 79%; remaining binding at 10 µM (CSF1R-autoinhibited): 90%; remaining binding at 10 µM (SRPK1): 100%; remaining binding at 10 µM (TRPM6): 100%
2 | COc1cc(N2CCC(N3CCN(C)CC3)CC2)ccc1Nc1ncc2c(n1)N(C)c1sc(C)nc1C(=O)N2C [Compound 5, 6-((2-methoxy-4-(4-(4-methylpiperazin-1-yl)piperidin-1-yl)phenyl)amino)-2,4,9-trimethyl-4,9-dihydro-10H-pyrimido[5,4-b]thiazolo[5,4-e][1,4]diazepin-10-one] | 94% | 95% | 95% | 100% | 94% | 100% | 96% | 100% | 100% | 94% | 100% | 100% | 95% | 88% | 100% | 93% | 98% | 95% | 100% | 40% | remaining binding at 10 µM (ABL1-nonphosphorylated): 77%; remaining binding at 10 µM (JNK3): 97%; remaining binding at 10 µM (MAP3K15): 84%; remaining binding at 10 µM (PKN1): 100%; remaining binding at 10 µM (MARK2): 100%; remaining binding at 10 µM (CDK4-cyclinD1): 90%; remaining binding at 10 µM [2]: 99%; remaining binding at 10 µM (PIM3): 100%; remaining binding at 10 µM (PIM2): 100%; remaining binding at 10 µM (PRKCH): 94%; remaining binding at 10 µM (TNNI3K): 88%; remaining binding at 10 µM (CSF1R-autoinhibited): 100%; remaining binding at 10 µM (SRPK1): 100%; remaining binding at 10 µM (TRPM6): 92%

Reference: patent publication US12365696B2, “Small-molecule focal adhesion kinase (FAK) inhibitors” (DANA-FARBER CANCER INSTITUTE, INC., priority 2019, dated 2025)
